Converted amounts (≈) assume the structure as drawn. Values belong to the compound of their own block, whether it stands above or below them. The source made the active and inactive calls. No cut-off for these calls is given here.
Legend:
Candida albicans [1] = assay: Antifungal activity against Candida albicans C697 infected in normal mouse assessed as increase of host survival at 5 mg/kg, ip measured for 4 days; format: functional; settings: 96 h, route intraperitoneal
Candida albicans [2] = assay: Antifungal activity against Candida albicans C697 infected in immune compromised mouse assessed as reduction of fungal burden in kidney at 5 mg/kg, ip; format: functional, organism-based; parameters: dose 5 mg/kg
Candida albicans [3] = assay: Antifungal activity against Candida albicans C697 infected in normal mouse assessed as reduction of fungal burden in kidney at 5 mg/kg, ip; format: functional, organism-based; parameters: dose 5 mg/kg
Candida albicans [4] = assay: Antifungal activity against Candida albicans C697 infected in immune compromised mouse assessed as increase of host survival at 5 mg/kg, ip measured for 4 days; format: functional; settings: 96 h, route intraperitoneal
Nakaseomyces glabratus = assay: Antifungal activity against Candida glabrata C624 by broth dilution method; format: functional; settings: read-out: MIC100
Rattus norvegicus = assay: AUC (0 to 6 hrs) in rat at 10 mg/kg, po; format: ADME, organism-based, Plasma; parameters: time < 6 hr, dose 10 mg/kg, route oral; settings: in vivo, 6 h, BLD = below limit of detection
Candida albicans [5] = assay: Antifungal activity against Candida albicans C693 by broth dilution method; format: functional; settings: read-out: MIC100
Beta-1,3-glucan synthase = biological target: T1, Beta-1,3-glucan synthase (Candida albicans, UniProt O13383); assay: Inhibition of 1,3-beta-D-glucan synthase in Candida albicans BWP17 membranes; format: cell membranes
T1 sequence (O13383 whole entry): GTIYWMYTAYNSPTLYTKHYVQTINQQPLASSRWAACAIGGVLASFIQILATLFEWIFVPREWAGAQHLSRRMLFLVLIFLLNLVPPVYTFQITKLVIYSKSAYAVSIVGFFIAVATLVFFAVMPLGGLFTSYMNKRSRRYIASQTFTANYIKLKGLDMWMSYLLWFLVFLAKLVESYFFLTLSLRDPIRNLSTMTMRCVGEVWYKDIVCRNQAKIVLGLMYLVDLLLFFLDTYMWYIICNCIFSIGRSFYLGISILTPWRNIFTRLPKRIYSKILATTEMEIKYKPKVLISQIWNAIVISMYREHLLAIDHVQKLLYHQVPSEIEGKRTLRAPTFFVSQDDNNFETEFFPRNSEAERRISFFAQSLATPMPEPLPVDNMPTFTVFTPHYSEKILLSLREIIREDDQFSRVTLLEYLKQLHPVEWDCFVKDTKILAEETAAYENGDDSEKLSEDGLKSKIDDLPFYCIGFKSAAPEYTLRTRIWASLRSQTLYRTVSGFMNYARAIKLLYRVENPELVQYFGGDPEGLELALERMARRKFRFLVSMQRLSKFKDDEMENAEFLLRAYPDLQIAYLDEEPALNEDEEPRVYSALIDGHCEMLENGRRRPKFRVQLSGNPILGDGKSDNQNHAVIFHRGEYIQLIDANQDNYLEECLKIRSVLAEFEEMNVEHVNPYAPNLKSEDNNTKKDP

Candida albicans [6] = assay: Antifungal activity against Candida albicans C697 infected in normal mouse assessed as increase of host survival at 100 mg/kg, ip measured for 4 days; format: functional; settings: 96 h, route intraperitoneal
Candida albicans [7] = assay: Antifungal activity against Candida albicans C697 infected in immune compromised mouse assessed as increase of host survival at 100 mg/kg, ip measured for 4 days; format: functional; settings: 96 h, route intraperitoneal

SMILES: CC[C@H](C)C[C@H](C)CCCCCCCCC(=O)N[C@H]1C[C@@H](O)[C@@H](NCCN)NC(=O)[C@@H]2[C@@H](O)CCN2C(=O)[C@H]([C@H](O)CCN)NC(=O)[C@H]([C@H](O)[C@@H](O)c2ccc(O)cc2)NC(=O)[C@@H]2C[C@@H](O)CN2C(=O)[C@H]([C@@H](C)O)NC1=O [CASPOFUNGIN]
survival at 5 mg/kg (Candida albicans [1]): 100% | Activity (Candida albicans [2]): Active | Activity (Candida albicans [3]): Active | survival at 5 mg/kg (Candida albicans [4]): 100%

MIC (Nakaseomyces glabratus): 0.26 µg/mL (≈ 0.476 µM) | AUC (Rattus norvegicus): BLD | MIC (Candida albicans [5]): 2.1 µg/mL (≈ 3.84 µM) | IC50 (Beta-1,3-glucan synthase): 91.5 nM
SMILES: O=c1c(OC2CCCC2)c(N2CCN(S(=O)(=O)Cc3cccc(O)c3)CC2)cnn1-c1cc(F)cc(F)c1

SMILES: Cc1cc(CS(=O)(=O)N2CCN(c3cnn(-c4cccc(Cl)c4)c(=O)c3OCC3(C)CC3)CC2)ccc1N
survival at 100 mg/kg (Candida albicans [6]): 100% | survival at 100 mg/kg (Candida albicans [7]): 100%

Source: ChEMBL document CHEMBL2057100, “The optimization of pyridazinone series of glucan synthase inhibitors” (Bioorg Med Chem Lett, 2012)
